Results from US20230085307A1, “PYRIDAZINONE COMPOUND AND HERBICIDE” (NISSAN CHEMICAL CORPORATION, priority 2019, published 2023).

Assays:
green foxtail = assay: Test Example 5: herbicidal effect by foliage application, plastic box (Table 20, symbol G); format: in vivo, green foxtail (Setaria viridis); conditions: foliage application, three weeks after application
Procedure, shortened: (§1)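 Plants were sown into sterilized diluvial soil under about 1.5 cm cover and kept in a greenhouse at 25° C. to 30° C. Fourteen days on, foliage received an even spray of the diluted emulsion. Herbicidal or crop effect was judged three weeks afterwards.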

windgrass = assay: Test Example 5: herbicidal effect by foliage application, plastic box (Table 20, symbol L); format: in vivo, windgrass (Apera spica-venti); conditions: foliage application, three weeks after application
Procedure, shortened: as §1

rice flat sedge = assay: Test Example 3: herbicidal effect by foliage application, Wagner pot (Table 18, symbol E); format: in vivo, rice flat sedge (Cyperus iria); conditions: for herbicidal effect on E (rice flat sedge), rating 0-5: 320 g/ha
Procedure, shortened: (§2)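 Plants were sown in alluvial soil held under 0.1–0.5 cm standing water and grown 14 days in a greenhouse at 25–30 °C. An emulsifiable formulation, water-diluted to the set dose, was then sprayed onto the foliage, and effects were scored three weeks later using previously defined criteria.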

velvetleaf = assay: Test Example 5: herbicidal effect by foliage application, plastic box (Table 20, symbol M); format: in vivo, velvetleaf (Abutilon theophrasti); conditions: foliage application, three weeks after application
Procedure, shortened: as §1

late watergrass = assay: Test Example 1: herbicidal activity, application before weed generation under submerged conditions (Table 16, symbol A); format: in vivo, late watergrass (Echinochloa oryzicola); conditions: for Herbicidal effect on A: late watergrass (grade 0-5): 320 g/ha applied herbicide
Procedure, shortened: (§3)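 Emulsion formulation, water-diluted to set dose, was put onto the flooded surface (4 cm depth, alluvial soil) the same day weeds were sown and 2.5-leaf rice transplanted. After 3 weeks at 25-30 °C under glass, each species was rated 0 (≤5% kill) to 5 (≥90% kill).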

Chinese sprangletop = assay: Test Example 3: herbicidal effect by foliage application, Wagner pot (Table 18, symbol D); format: in vivo, chinese sprangletop (Leptochloa chinensis); conditions: for herbicidal effect on D (Chinese sprangletop), rating 0-5: 320 g/ha
Procedure, shortened: as §2

barnyard grass [1] = assay: Test Example 3: herbicidal effect by foliage application, Wagner pot (Table 18, symbol H); format: in vivo, barnyard grass (Echinochloa crus-galli); conditions: for herbicidal effect on H (barnyard grass), rating 0-5: 320 g/ha
Procedure, shortened: as §2

persian speedwell = assay: Test Example 5: herbicidal effect by foliage application, plastic box (Table 20, symbol R); format: in vivo, Persian speedwell (Veronica persica); conditions: foliage application, three weeks after application
Procedure, shortened: as §1

chickweed = assay: Test Example 5: herbicidal effect by foliage application, plastic box (Table 20, symbol P); format: in vivo, common chickweed (Stellaria media); conditions: foliage application, three weeks after application
Procedure, shortened: as §1

Japanese bulrush = assay: Test Example 1: herbicidal activity, application before weed generation under submerged conditions (Table 16, symbol B); format: in vivo, Japanese bulrush (Schoenoplectus juncoides); conditions: for Herbicidal effect on B: Japanese bulrush (grade 0-5): 320 g/ha applied herbicide
Procedure, shortened: as §3

wild oat = assay: Test Example 5: herbicidal effect by foliage application, plastic box (Table 20, symbol I); format: in vivo, wild oat (Avena fatua); conditions: foliage application, three weeks after application
Procedure, shortened: as §1

barnyard grass [2] = assay: Test Example 5: herbicidal effect by foliage application, plastic box (Table 20, symbol H); format: in vivo, barnyard grass (Echinochloa crus-galli); conditions: foliage application, three weeks after application
Procedure, shortened: as §1

oval-leafed pondweed = assay: Test Example 1: herbicidal activity, application before weed generation under submerged conditions (Table 16, symbol C); format: in vivo, oval-leafed pondweed (Monochoria vaginalis); conditions: for Herbicidal effect on C: oval-leafed pondweed (grade 0-5): 320 g/ha applied herbicide
Procedure, shortened: as §3

blackgrass = assay: Test Example 5: herbicidal effect by foliage application, plastic box (Table 20, symbol J); format: in vivo, blackgrass (Alopecurus myosuroides); conditions: foliage application, three weeks after application
Procedure, shortened: as §1

lambsquarters = assay: Test Example 5: herbicidal effect by foliage application, plastic box (Table 20, symbol O); format: in vivo, lambsquarters (Chenopodium album); conditions: foliage application, three weeks after application
Procedure, shortened: as §1

Italian ryegrass = assay: Test Example 5: herbicidal effect by foliage application, plastic box (Table 20, symbol K); format: in vivo, Italian ryegrass (Lolium multiflorum); conditions: foliage application, three weeks after application
Procedure, shortened: as §1

southern crabgrass = assay: Test Example 5: herbicidal effect by foliage application, plastic box (Table 20, symbol F); format: in vivo, southern crabgrass (Digitaria ciliaris); conditions: foliage application, three weeks after application
Procedure, shortened: as §1

false cleavers = assay: Test Example 5: herbicidal effect by foliage application, plastic box (Table 20, symbol Q); format: in vivo, false cleavers (Galium spurium); conditions: foliage application, three weeks after application
Procedure, shortened: as §1

redroot pigweed = assay: Test Example 5: herbicidal effect by foliage application, plastic box (Table 20, symbol N); format: in vivo, redroot pigweed (Amaranthus retroflexus); conditions: foliage application, three weeks after application
Procedure, shortened: as §1

[3] = amount of applied herbicide 45 g/ha
[4] = amount of applied herbicide 49 g/ha

COc1ccc(-c2sc3ccccc3c2-c2c(O)c(C)nn(C)c2=O)c(OC)c1 [1-070]
herbicidal effect grade, G: green foxtail (green foxtail; 320 g/ha): 3 (Herbicidal rate of 40% or more and less than 70%)
herbicidal effect grade, L: windgrass (windgrass; 320 g/ha): 3 (Herbicidal rate of 40% or more and less than 70%)
herbicidal effect on E (rice flat sedge), rating 0-5 (rice flat sedge): 3 (Herbicidal rate of 40% or more and less than 70%)
herbicidal effect grade, M: velvetleaf (velvetleaf; 320 g/ha): 2 (Herbicidal rate of 20% or more and less than 40%)
Herbicidal effect on A: late watergrass (grade 0-5) (late watergrass): 3 (Herbicidal rate of 40% or more and less than 70%)
herbicidal effect on D (Chinese sprangletop), rating 0-5 (Chinese sprangletop): 0 (Herbicidal rate of 5% or less (almost no effect))
herbicidal effect on H (barnyard grass), rating 0-5 (barnyard grass [1]): 1 (Herbicidal rate of 5% or more and less than 20%)
herbicidal effect grade, R: persian speedwell (persian speedwell; 320 g/ha): 4 (Herbicidal rate of 70% or more and less than 90%)
herbicidal effect grade, P: chickweed (chickweed; 320 g/ha): 5 (Herbicidal rate of 90% or more (almost completely withered))
Herbicidal effect on B: Japanese bulrush (grade 0-5) (Japanese bulrush): 3 (Herbicidal rate of 40% or more and less than 70%)
herbicidal effect grade, I: wild oat (wild oat; 320 g/ha): 1 (Herbicidal rate of 5% or more and less than 20%)
herbicidal effect grade, H: barnyard grass (barnyard grass [2]; 320 g/ha): 0 (Herbicidal rate of 5% or less (almost no effect))
Herbicidal effect on C: oval-leafed pondweed (grade 0-5) (oval-leafed pondweed): 1 (Herbicidal rate of 5% or more and less than 20%)
herbicidal effect grade, J: blackgrass (blackgrass; 320 g/ha): 0 (Herbicidal rate of 5% or less (almost no effect))
herbicidal effect grade, O: lambsquarters (lambsquarters; 320 g/ha): 0 (Herbicidal rate of 5% or less (almost no effect))
herbicidal effect grade, K: Italian ryegrass (Italian ryegrass; 320 g/ha): 1 (Herbicidal rate of 5% or more and less than 20%)
herbicidal effect grade, F: southern crabgrass (southern crabgrass; 320 g/ha): 3 (Herbicidal rate of 40% or more and less than 70%)
herbicidal effect grade, Q: false cleavers (false cleavers; 320 g/ha): 2 (Herbicidal rate of 20% or more and less than 40%)

Cc1nn(C)c(=O)c(-c2c(-c3ccccc3OCC3CC3(F)F)sc3ccccc23)c1O (centres unmarked) [1-120]
G: green foxtail, herbicidal effect (green foxtail; AAH 320 g/ha): 0 (Herbicidal rate of 5% or less (almost no effect))
L: windgrass, herbicidal effect (windgrass; AAH 320 g/ha): 0 (Herbicidal rate of 5% or less (almost no effect))
herbicidal effect on E (rice flat sedge), rating 0-5 (rice flat sedge): 2 (Herbicidal rate of 20% or more and less than 40%)
M: velvetleaf, herbicidal effect (velvetleaf; AAH 320 g/ha): 0 (Herbicidal rate of 5% or less (almost no effect))
Herbicidal effect on A: late watergrass (grade 0-5) (late watergrass): 3 (Herbicidal rate of 40% or more and less than 70%)
N: redroot pigweed, herbicidal effect (redroot pigweed; AAH 320 g/ha): 0 (Herbicidal rate of 5% or less (almost no effect))
herbicidal effect on D (Chinese sprangletop), rating 0-5 (Chinese sprangletop): 0 (Herbicidal rate of 5% or less (almost no effect))
herbicidal effect on H (barnyard grass), rating 0-5 (barnyard grass [1]): 3 (Herbicidal rate of 40% or more and less than 70%)
R: persian speedwell, herbicidal effect (persian speedwell; AAH 320 g/ha): 5 (Herbicidal rate of 90% or more (almost completely withered))
P: chickweed, herbicidal effect (chickweed; AAH 320 g/ha): 4 (Herbicidal rate of 70% or more and less than 90%)
Herbicidal effect on B: Japanese bulrush (grade 0-5) (Japanese bulrush): 0 (Herbicidal rate of 5% or less (almost no effect))
I: wild oat, herbicidal effect (wild oat; AAH 320 g/ha): 0 (Herbicidal rate of 5% or less (almost no effect))
H: barnyard grass, herbicidal effect (barnyard grass [2]; AAH 320 g/ha): 0 (Herbicidal rate of 5% or less (almost no effect))
Herbicidal effect on C: oval-leafed pondweed (grade 0-5) (oval-leafed pondweed): 0 (Herbicidal rate of 5% or less (almost no effect))
J: blackgrass, herbicidal effect (blackgrass; AAH 320 g/ha): 2 (Herbicidal rate of 20% or more and less than 40%)
O: lambsquarters, herbicidal effect (lambsquarters; AAH 320 g/ha): 0 (Herbicidal rate of 5% or less (almost no effect))
K: Italian ryegrass, herbicidal effect (Italian ryegrass; AAH 320 g/ha): 0 (Herbicidal rate of 5% or less (almost no effect))
F: southern crabgrass, herbicidal effect (southern crabgrass; AAH 320 g/ha): 0 (Herbicidal rate of 5% or less (almost no effect))
Q: false cleavers, herbicidal effect (false cleavers; AAH 320 g/ha): 3 (Herbicidal rate of 40% or more and less than 70%)

CCCC(=O)Oc1c(C)nn(C)c(=O)c1-c1c(-c2ccc(C(C)=NOC)cc2)sc2cc(F)ccc12 [3-018]
G: green foxtail, herbicidal effect grade (green foxtail; 45 g/ha): 0 (Herbicidal rate of 5% or less (almost no effect))
L: windgrass, herbicidal effect grade (windgrass; 45 g/ha): 0 (Herbicidal rate of 5% or less (almost no effect))
herbicidal effect on E: rice flat sedge (rice flat sedge; [3]): 2 (Herbicidal rate of 20% or more and less than 40%)
M: velvetleaf, herbicidal effect grade (velvetleaf; 45 g/ha): 0 (Herbicidal rate of 5% or less (almost no effect))
Herbicidal effect, A: late watergrass (late watergrass; [4]): 3 (Herbicidal rate of 40% or more and less than 70%)
N: redroot pigweed, herbicidal effect grade (redroot pigweed; 45 g/ha): 3 (Herbicidal rate of 40% or more and less than 70%)
herbicidal effect on D: Chinese sprangletop (Chinese sprangletop; [3]): 0 (Herbicidal rate of 5% or less (almost no effect))
herbicidal effect on H: barnyard grass (barnyard grass [1]; [3]): 3 (Herbicidal rate of 40% or more and less than 70%)
R: persian speedwell, herbicidal effect grade (persian speedwell; 45 g/ha): 3 (Herbicidal rate of 40% or more and less than 70%)
P: chickweed, herbicidal effect grade (chickweed; 45 g/ha): 1 (Herbicidal rate of 5% or more and less than 20%)
Herbicidal effect, B: Japanese bulrush (Japanese bulrush; [4]): 2 (Herbicidal rate of 20% or more and less than 40%)
I: wild oat, herbicidal effect grade (wild oat; 45 g/ha): 0 (Herbicidal rate of 5% or less (almost no effect))
H: barnyard grass, herbicidal effect grade (barnyard grass [2]; 45 g/ha): 0 (Herbicidal rate of 5% or less (almost no effect))
Herbicidal effect, C: oval-leafed pondweed (oval-leafed pondweed; [4]): 0 (Herbicidal rate of 5% or less (almost no effect))
J: blackgrass, herbicidal effect grade (blackgrass; 45 g/ha): 0 (Herbicidal rate of 5% or less (almost no effect))
O: lambsquarters, herbicidal effect grade (lambsquarters; 45 g/ha): 1 (Herbicidal rate of 5% or more and less than 20%)
K: Italian ryegrass, herbicidal effect grade (Italian ryegrass; 45 g/ha): 0 (Herbicidal rate of 5% or less (almost no effect))
F: southern crabgrass, herbicidal effect grade (southern crabgrass; 45 g/ha): 0 (Herbicidal rate of 5% or less (almost no effect))
Q: false cleavers, herbicidal effect grade (false cleavers; 45 g/ha): 0 (Herbicidal rate of 5% or less (almost no effect))
